Several values for one entry are separate records, joined by “and”; a condition that tells them apart may be missing. Equal values may be shown once.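 Cultured in 96-well plates, cells were exposed to test compound for 48 hours across five concentrations. GI50 = concentration required for 50% inhibition of growth. TGI marks complete inhibition of growth.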
How the values were obtained:
Test in all cases: NCI-60 cell line screen, 48 h
[1] = test system: A498 renal
[2] = test system: CAKI-1 renal
[3] = test system: COLO 205 colon
[4] = test system: HCC-2998 colon
[5] = test system: MDA-MB-231 breast
[6] = test system: NCI-H226 lung
[7] = test system: NCI/ADR-RES ovarian
[8] = test system: OVCAR-3 ovarian
[9] = test system: SNB-19 CNS
[10] = test system: SW-620 colon

SMILES	GI50 [1]	TGI [1]	GI50 [2]	TGI [2]	GI50 [3]	TGI [3]	GI50 [4]	TGI [4]	GI50 [5]	TGI [5]	GI50 [6]	TGI [6]	GI50 [7]	TGI [7]	GI50 [8]	TGI [8]	GI50 [9]	TGI [9]	GI50 [10]	TGI [10]
O=C(c1ccc(OCCN2CCCCC2)cc1)c1c(-c2ccc(O)cc2)sc2cc(O)ccc12	11.6 µM	26.2 µM	4.65 µM and 14.4 µM	20.6 µM and 34.1 µM	12.3 µM and 9.73 µM	24.7 µM and 40.6 µM	6.37 µM and 19.1 µM	19.2 µM and 36.8 µM	10.4 µM and 9.02 µM	23.2 µM and 23.6 µM	15 µM and 17 µM	29.6 µM and 34.6 µM	7.72 µM and 17.7 µM	23.1 µM and 42.6 µM	10 µM and 14 µM	21.7 µM and 31.5 µM	13.7 µM and 15 µM	30.5 µM and 34.2 µM	7.64 µM and 13.4 µM	22 µM and 39.2 µM
COC(=O)[C@H]1[C@@H](O)[C@@]2(O)c3c(OC)cc(O[C@@H]4O[C@@H]([C@H](O)CO)CO[C@H]4OC)cc3O[C@@]2(c2ccc(OC)cc2)[C@@H]1c1ccccc1	0.00537 µM	0.0141 µM	0.997 µM	> 1 µM	0.00309 µM	0.00989 µM	0.00297 µM	0.0164 µM	0.00386 µM	0.0237 µM	0.00813 µM	0.078 µM	–	> 1 µM	0.00378 µM	0.035 µM	0.00277 µM	0.0384 µM	0.00605 µM	0.186 µM
CCN1C(=O)N(CC)C2C1NN=c1s/c(=C\c3ccccc3F)c(=O)n12 (stereo not given)	0.0154 µM	0.064 µM	0.0323 µM	> 100 µM	0.0271 µM	0.0737 µM	0.0334 µM	> 58.8 µM	0.0457 µM	> 84.6 µM	11.2 µM	> 100 µM	0.0296 µM	> 63.6 µM	0.0282 µM	0.0789 µM	0.0489 µM	> 100 µM	0.0379 µM	> 100 µM
O=C1/C=C/[C@@H](O)[C@@H]2C[C@@H](O)C[C@H]2/C=C/CCC[C@H](CCc2ccc(C(F)(F)F)cc2)O1	0.0533 µM	0.277 µM	0.312 µM	> 100 µM	0.175 µM	0.319 µM	0.238 µM	3.87 µM	0.185 µM	0.368 µM	0.0539 µM	0.513 µM	0.191 µM	9.58 µM	0.264 µM	0.69 µM	0.383 µM	> 100 µM	0.297 µM	1.27 µM
COC(=O)C(Cc1cnc[nH]1)NC(=O)CNC(=O)CCCn1c(=O)c2c3ccccc3n(C)c2n2nnc(-c3ccccc3)c12 (stereo not given)	> 100 µM	> 100 µM	> 100 µM	> 100 µM	> 100 µM	> 100 µM	> 100 µM	> 100 µM	> 100 µM	> 100 µM	> 100 µM	> 100 µM	> 100 µM	> 100 µM	> 100 µM	> 100 µM	> 100 µM	> 100 µM	> 100 µM	> 100 µM
COc1c2ccoc2cc2oc(=O)ccc12	–	> 100 µM	–	> 100 µM	–	> 100 µM	–	> 100 µM	–	> 100 µM	–	> 100 µM	–	> 100 µM	–	> 100 µM	–	> 100 µM	–	> 100 µM
CN1CCC(CNc2ccc3ncc(-c4cccc(OC(F)(F)F)c4)n3n2)CC1	0.869 µM and 1.58 µM	3.28 µM and 7.47 µM	1.47 µM and 1.83 µM	3.57 µM and > 10 µM	1.59 µM and 1.47 µM	3.07 µM and 3.08 µM	1.57 µM and 1.45 µM	3.15 µM and 3.32 µM	1.62 µM and 1.26 µM	3.65 µM and 2.77 µM	1.82 µM and 3.62 µM	8.49 µM and > 10 µM	2.84 µM and 5.26 µM	10.5 µM and > 10 µM	1.7 µM and 2.15 µM	3.79 µM and > 10 µM	4.06 µM and 2.95 µM	16.5 µM and > 10 µM	2.03 µM and 2.13 µM	4.77 µM and 6.09 µM
Cc1cccc(-c2nn3c(c2-c2ccnc4ccc(C(N)=O)cc24)CCC3)n1	97.5 µM	> 100 µM	> 100 µM	> 100 µM	> 100 µM	> 100 µM	> 100 µM	> 100 µM	> 100 µM	> 100 µM	> 100 µM	> 100 µM	> 100 µM	> 100 µM	> 100 µM	> 100 µM	> 100 µM	> 100 µM	> 100 µM	> 100 µM
COc1ccccc1/C=C/C(=O)c1c(O)cc2occc2c1OC	46 µM	> 100 µM	> 100 µM	> 100 µM	> 100 µM	> 100 µM	> 100 µM	> 100 µM	33.1 µM	> 100 µM	25.1 µM	> 100 µM	29.6 µM	> 100 µM	47.4 µM	> 100 µM	30.8 µM	> 100 µM	> 100 µM	> 100 µM
C=C(C)[C@@H]1CC[C@]2(C(N)=O)CC[C@]3(C)[C@H](CC[C@@H]4[C@@]5(C)CC[C@H](O)C(C)(C)[C@@H]5CC[C@]43C)[C@@H]12	12.2 µM	76.5 µM	1.98 µM	4.98 µM	3.63 µM	15 µM	3.96 µM	12.9 µM	1.97 µM	4.6 µM	4.1 µM	17.8 µM	3.17 µM	12.5 µM	2.07 µM	4.18 µM	4.57 µM	34.3 µM	3.88 µM	26.1 µM
C[C@H](N)C(=O)N[C@@H]1[C@H]2C(=C(O)C[C@@H](O)[C@@H]2O)C(=O)O[C@]1(C)C(Cl)Cl	–	2.27 µM and 1.56 µM	0.43 µM	–	0.13 µM	0.212 µM and 0.37 µM	0.224 µM	0.745 µM and 1.16 µM	–	1.14 µM	0.266 µM	1.34 µM and 1.06 µM	–	29.1 µM	0.454 µM	9.36 µM and 1.94 µM	0.242 µM	6.02 µM and 1.72 µM	0.221 µM	6.6 µM and 3 µM
O=c1[nH]cc(/C=N\Nc2ccccc2)c(=O)[nH]1	–	> 100 µM	–	> 100 µM	–	> 100 µM	–	> 100 µM	–	> 100 µM	–	> 100 µM	–	> 100 µM	–	> 100 µM	–	> 100 µM	–	> 100 µM
C/C1=C/C(=O)O[C@@H]2C[C@@H](CC[C@H](C)/C=C\C=C\CC1)O[C@@](O)([C@@H]1CSC(=O)N1CO)C2	0.0183 µM	0.0724 µM	0.0203 µM	0.382 µM	0.0374 µM	0.146 µM	13 µM	65.4 µM	0.0634 µM	> 60.4 µM	0.104 µM	> 100 µM	1.2 µM	46.1 µM	0.122 µM	0.512 µM	0.0833 µM	0.671 µM	12.6 µM	30 µM
